Measurements taken from patent US9434743B2, “Indazole derivatives” (TAKEDA PHARMACEUTICAL COMPANY LIMITED, priority 2012, dated 2016).

Columns and labels:
[1] = target: T1, human MetAP2 enzyme (Homo sapiens, UniProt P50579); test: MetAP2 enzyme assay, enzyme complexed with manganese ions; conditions: MetAP2 Mn pIC50, MetAP2 enzyme complexed with manganese ions; Met-AMC substrate at Km
[2] = target: T1, human MetAP2 enzyme; test: MetAP2 enzyme assay, enzyme complexed with cobalt ions; conditions: MetAP2 Co pIC50, MetAP2 enzyme complexed with cobalt ions; Met-AMC substrate at Km
Procedure: DNA encoding the full-length sequence of human MetAP2 enzyme is amplified by PCR and cloned into a pFastBac expression vector (Invitrogen). Recombinant baculovirus incorporating the MetAP2 construct is generated by transposition using the Bac-to-Bac system (Invitrogen). The expression of recombinant protein is carried out by infection of Spodoptera frugiperda Sf9 cells (Invitrogen) in 5 L Wave Bioreactors (Wave Biotech). Recombinant protein is isolated from cellular extracts by binding to an SP Hitrap Fast Flow or SP Sepharose (Sigma) column, and the protein is eluted using a NaCl gradient. Partially purified extracts of MetAP2 are further purified by an AKTA FPLC over a Superdex-200 column (GE). The purity of MetAP2 protein is determined on denaturing SDS-PAGE gel.
The results for each well are expressed as percent inhibition and calculated using the equation:

T1 sequence (P50579 whole entry): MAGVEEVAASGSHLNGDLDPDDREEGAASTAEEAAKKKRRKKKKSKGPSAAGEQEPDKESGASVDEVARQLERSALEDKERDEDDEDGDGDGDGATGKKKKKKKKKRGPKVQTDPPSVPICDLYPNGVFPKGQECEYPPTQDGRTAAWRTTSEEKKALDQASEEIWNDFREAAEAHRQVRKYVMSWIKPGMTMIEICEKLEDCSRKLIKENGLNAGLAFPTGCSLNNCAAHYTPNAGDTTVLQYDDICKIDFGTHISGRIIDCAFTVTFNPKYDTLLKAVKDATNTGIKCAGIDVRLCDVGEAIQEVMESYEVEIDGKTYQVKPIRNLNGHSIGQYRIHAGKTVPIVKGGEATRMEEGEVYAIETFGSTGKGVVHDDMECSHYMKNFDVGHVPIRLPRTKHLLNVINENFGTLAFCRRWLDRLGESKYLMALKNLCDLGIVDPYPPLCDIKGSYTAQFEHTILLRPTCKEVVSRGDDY

IC50 [1] | IC50 [2] | SMILES
12.6 nM | 316 nM | CN1CCN(C(=O)c2ccc(-c3cc(C(F)(F)F)cc4[nH]ncc34)cn2)CC1 [Example 271, (4-methylpiperazin-1-yl)(5-(6-(trifluoromethyl)-1H-indazol-4-yl)pyridin-2-yl)methanone]
15.8 nM | 501 nM | Oc1cccnc1-c1cc(C(F)(F)F)cc2[nH]ncc12 [Example 214, 2-(6-(trifluoromethyl)-1H-indazol-4-yl)pyridin-3-ol]
7.94 nM | 20 nM | COc1ccc(-c2cc(C(F)(F)F)cc3[nH]ncc23)c2cccnc12 [Example 113, 8-methoxy-5-(6-(trifluoromethyl)-1H-indazol-4-yl)quinoline]
63.1 nM | 501 nM | FC(F)(F)c1cc(-c2cnc3ccccn23)c2cn[nH]c2c1 [Example 149, 4-(imidazo[1,2-a]pyridin-3-yl)-6-(trifluoromethyl)-1H-indazole]
20 nM | 501 nM | COc1ccc(N)c(-c2cc(C(F)(F)F)cc3[nH]ncc23)n1 [Example 184, 6-methoxy-2-(6-(trifluoromethyl)-1H-indazol-4-yl)pyridin-3-amine]
15.8 nM | 79.4 nM | Cc1nn(CC(=O)N(C)C)c(C)c1-c1cc(C(F)(F)F)cc2[nH]ncc12 [Example 363, 2-(3,5-dimethyl-4-(6-(trifluoromethyl)-1H-indazol-4-yl)-1H-pyrazol-1-yl)-N,N-dimethylacetamide]
10 nM | 31.6 nM | Cn1cnc2ccc(-c3cc(C(F)(F)F)cc4[nH]ncc34)cc21 [Example 64, 4-(1-methyl-1H-benzo[d]imidazol-6-yl)-6-(trifluoromethyl)-1H-indazole]
31.6 nM | 1580 nM | Cn1cnc(N)c(-c2cc(C(F)(F)F)cc3[nH]ncc23)c1=O [Example 245, 6-amino-3-methyl-5-(6-(trifluoromethyl)-1H-indazol-4-yl)pyrimidin-4(3H)-one]
6.31 nM | 63.1 nM | COc1ncc(-c2cc(C(F)(F)F)cc3[nH]ncc23)cc1C(=O)NCCO [Example 229, N-(2-hydroxyethyl)-2-methoxy-5-(6-(trifluoromethyl)-1H-indazol-4-yl)nicotinamide]
10 nM | 25.1 nM | CC(=O)Nc1cc(C)c(-c2cc(C(F)(F)F)cc3[nH]ncc23)cn1 [Example 179, N-(4-methyl-5-(6-(trifluoromethyl)-1H-indazol-4-yl)pyridin-2-yl)acetamide]
7.94 nM | 50.1 nM | NS(=O)(=O)c1ccc(-c2cc(C(F)(F)F)cc3[nH]ncc23)cc1 [Example 25, 4-(6-(trifluoromethyl)-1H-indazol-4-yl)benzenesulfonamide]
39.8 nM | 1000 nM | OC(COc1ccccc1-c1cc(C(F)(F)F)cc2[nH]ncc12)CN1CCOCC1 (centres unmarked) [Example 180, 1-morpholino-3-(2-(6-(trifluoromethyl)-1H-indazol-4-yl)phenoxy)propan-2-ol]
3.98 nM | 63.1 nM | NC(=O)c1cc(-c2cc(C(F)(F)F)cc3[nH]ncc23)ccn1 [Example 283, 4-(6-(trifluoromethyl)-1H-indazol-4-yl)picolinamide]
12.6 nM | 79.4 nM | COc1ccc(-c2cc(C(F)(F)F)cc3[nH]ncc23)c(C)n1 [Example 249, 4-(6-methoxy-2-methylpyridin-3-yl)-6-(trifluoromethyl)-1H-indazole]
25.1 nM | 1000 nM | Cn1cc(-c2cc(C(F)(F)F)cc3[nH]ncc23)c(=O)n(CC#N)c1=O [Example 312, 2-(3-methyl-2,6-dioxo-5-(6-(trifluoromethyl)-1H-indazol-4-yl)-2,3-dihydropyrimidin-1(6H)-yl)acetonitrile]
12.6 nM | 1000 nM | Cn1cc(-c2cc(C(F)(F)F)cc3[nH]ncc23)c(=O)n(CCO)c1=O [Example 303, 3-(2-hydroxyethyl)-1-methyl-5-(6-(trifluoromethyl)-1H-indazol-4-yl)pyrimidine-2,4(1H,3H)-dione]
3.16 nM | 15.8 nM | COc1ccc(OC)c(-c2cc(C(F)(F)F)cc3[nH]ncc23)c1 [Example 86, 4-(2,5-dimethoxyphenyl)-6-(trifluoromethyl)-1H-indazole]
12.6 nM | 631 nM | N#Cc1ncc(-c2cc(C(F)(F)F)cc3[nH]ncc23)cn1 [Example 198, 5-(6-(trifluoromethyl)-1H-indazol-4-yl)pyrimidine-2-carbonitrile]
39.8 nM | 631 nM | FC(F)(F)c1cc(-c2cccnc2OCc2ccccc2)c2cn[nH]c2c1 [Example 99, 4-(2-(benzyloxy)pyridin-3-yl)-6-(trifluoromethyl)-1H-indazole]
3.98 nM | 50.1 nM | FC(F)(F)c1cc(-c2cnn(CCN3CCOCC3)c2)c2cn[nH]c2c1 [Example 74, 4-(2-(4-(6-(trifluoromethyl)-1H-indazol-4-yl)-1H-pyrazol-1-yl)ethyl)morpholine]

IC50 [1] | IC50 [2] | SMILES
31.6 nM | 126 nM | Cc1ccc(C(=O)N2CCC(O)C2)cc1-c1cc(C(F)(F)F)cc2[nH]ncc12 (centres unmarked) [Example 370, (3-hydroxypyrrolidin-1-yl)(4-methyl-3-(6-(trifluoromethyl)-1H-indazol-4-yl)phenyl)methanone]
6.31 nM | 100 nM | CCOC(=O)Cn1cc(-c2cc(C(F)(F)F)cc3[nH]ncc23)cn1 [Example 260, ethyl 2-(4-(6-(trifluoromethyl)-1H-indazol-4-yl)-1H-pyrazol-1-yl)acetate]
31.6 nM | 794 nM | CNC(=O)c1ncncc1-c1cc(C(F)(F)F)cc2[nH]ncc12 [Example 254, N-methyl-5-(6-(trifluoromethyl)-1H-indazol-4-yl)pyrimidine-4-carboxamide]
6.31 nM | 31.6 nM | COc1nc(C(=O)N2CC(O)C2)ccc1-c1cc(C(F)(F)F)cc2[nH]ncc12 [Example 395, (3-hydroxyazetidin-1-yl)(6-methoxy-5-(6-(trifluoromethyl)-1H-indazol-4-yl)pyridin-2-yl)methanone]
15.8 nM | 25.1 nM | COc1ccc(CC(=O)NCCO)cc1-c1cc(C(F)(F)F)cc2[nH]ncc12 [Example 320, N-(2-hydroxyethyl)-2-(4-methoxy-3-(6-(trifluoromethyl)-1H-indazol-4-yl)phenyl)acetamide]
50.1 nM | 1000 nM | FC(F)(F)c1cc(-c2csc(N3CCOCC3)n2)c2cn[nH]c2c1 [Example 60, 4-(4-(6-(trifluoromethyl)-1H-indazol-4-yl)thiazol-2-yl)morpholine]
7.94 nM | 12.6 nM | Cc1nc(N2CCN(C)CC2)ccc1-c1cc(C(F)(F)F)cc2[nH]ncc12 [Example 400, 4-(2-methyl-6-(4-methylpiperazin-1-yl)pyridin-3-yl)-6-(trifluoromethyl)-1H-indazole]
3.98 nM | 158 nM | Cn1c(-c2cc(C(F)(F)F)cc3[nH]ncc23)nc2c1c(=O)[nH]c(=O)n2C [Example 167, 3,7-dimethyl-8-(6-(trifluoromethyl)-1H-indazol-4-yl)-1H-purine-2,6(3H,7H)-dione]
6.31 nM | 50.1 nM | CNC(=O)c1ccc(F)c(-c2cc(C(F)(F)F)cc3[nH]ncc23)c1 [Example 114, 4-fluoro-N-methyl-3-(6-(trifluoromethyl)-1H-indazol-4-yl)benzamide]
6.31 nM | 50.1 nM | Cc1c(-c2cc(C(F)(F)F)cc3[nH]ncc23)ccc2ncnn12 [Example 393, 5-methyl-6-(6-(trifluoromethyl)-1H-indazol-4-yl)-[1,2,4]triazolo[1,5-a]pyridine]
7.94 nM | 25.1 nM | Cc1nc(N)ccc1-c1cc(C(F)(F)F)cc2[nH]ncc12 [Example 255, 6-methyl-5-(6-(trifluoromethyl)-1H-indazol-4-yl)pyridin-2-amine]
25.1 nM | 63.1 nM | FC(F)(F)c1cc(-c2cccc(N3CCOCC3)c2)c2cn[nH]c2c1 [Example 57, 4-(3-(6-(trifluoromethyl)-1H-indazol-4-yl)phenyl)morpholine]
5.01 nM | 100 nM | NS(=O)(=O)c1cncc(-c2cc(C(F)(F)F)cc3[nH]ncc23)c1 [Example 346, 5-(6-(trifluoromethyl)-1H-indazol-4-yl)pyridine-3-sulfonamide]
10 nM | 501 nM | Cn1cc(-c2cc(C(F)(F)F)cc3[nH]ncc23)c(=O)n(C)c1=O [Example 82, 1,3-dimethyl-5-(6-(trifluoromethyl)-1H-indazol-4-yl)pyrimidine-2,4(1H,3H)-dione]
6.31 nM | 100 nM | COCCNc1ncc(-c2cc(C(F)(F)F)cc3[nH]ncc23)cn1 [Example 293, N-(2-methoxyethyl)-5-(6-(trifluoromethyl)-1H-indazol-4-yl)pyrimidin-2-amine]
5.01 nM | 39.8 nM | COc1ncccc1-c1cc(C(F)(F)F)cc2[nH]ncc12 [Example 53, 4-(2-methoxypyridin-3-yl)-6-(trifluoromethyl)-1H-indazole]
6.31 nM | 25.1 nM | Cn1ncc2cc(-c3cc(C(F)(F)F)cc4[nH]ncc34)ccc21 [Example 36, 1′-methyl-6-(trifluoromethyl)-1H,1′H-4,5′-biindazole]
50.1 nM | 316 nM | COc1ccc(C)nc1-c1cc(C(F)(F)F)cc2[nH]ncc12 [Example 200, 4-(3-methoxy-6-methylpyridin-2-yl)-6-(trifluoromethyl)-1H-indazole]
10 nM | 15.8 nM | Cc1cc(C(=O)N2CC(O)C2)ccc1-c1cc(C(F)(F)F)cc2[nH]ncc12 [Example 361, (3-hydroxyazetidin-1-yl)(3-methyl-4-(6-(trifluoromethyl)-1H-indazol-4-yl)phenyl)methanone]
7.94 nM | 100 nM | NC(=O)c1cc(-c2cc(C(F)(F)F)cc3[nH]ncc23)cnc1N [Example 233, 2-amino-5-(6-(trifluoromethyl)-1H-indazol-4-yl)nicotinamide]
